Experimental data reported in the NIST ThermoML archive (doi:10.1016/j.jct.2016.10.009).

Assay: xn = mol fraction of the nth substance listed
Settings: Liquid, Vibrating tube method, x1 = 1

CCC(C)O (centres undefined) [butan-2-ol] + CC(C)OC(C)C
mass density [kg/m3]
Settings	293.15 K	298.15 K	313.15 K	333.15 K	353.19 K	373.24 K	393.28 K
100 kPa	806.7	802.6	789.6	770.8	750.3	–	–
1000 kPa	807.4	803.3	790.3	771.8	751.4	729.1	704.8
5000 kPa	810.4	806.4	793.7	775.7	756	734.5	711.3
10000 kPa	814	810.1	797.8	780.3	761.3	740.8	718.8
15000 kPa	817.4	813.7	801.6	784.7	766.4	746.6	725.6
20000 kPa	820.7	817	805.3	788.9	771	751.9	731.7
25000 kPa	823.9	820.2	808.6	792.7	775.4	757	737.4
30000 kPa	826.9	823.4	812.1	796.4	779.5	761.6	742.7
35000 kPa	829.8	826.4	815.3	800	783.5	766.1	747.8
40000 kPa	832.7	829.2	818.4	803.5	787.2	770.3	752.5
45000 kPa	835.4	832	821.3	806.6	790.8	774.4	757
50000 kPa	838.1	834.7	824.3	809.8	794.4	778.1	761.2
55000 kPa	840.6	837.4	827.1	812.8	797.7	781.8	765.4
60000 kPa	843.2	839.9	829.8	815.8	801	785.3	769.2
65000 kPa	845.6	842.4	832.5	818.7	804.1	788.8	772.9
70000 kPa	848	844.8	835	821.4	807.2	792.1	776.6
80000 kPa	852.6	849.5	839.9	826.8	812.9	798.4	783.4
90000 kPa	857.1	854.1	844.7	831.9	818.3	804.3	789.8
100000 kPa	861.2	858.3	849.1	836.7	823.5	809.8	795.8
110000 kPa	865.3	862.4	853.5	841.3	828.5	815.1	801.5
120000 kPa	869.2	866.3	857.6	845.6	833.1	820.1	806.8
130000 kPa	873	870.1	861.5	849.9	837.6	824.9	811.9
140000 kPa	876.6	873.9	865.4	853.9	842	829.5	816.8
